Data on 41 compounds can be found in patent publication US10227345B2, “Compounds and methods for inhibiting fascin” (Cornell University, priority 2014, dated 2019).

Molecules are shown by their SMILES.

The target in this assay is T1, human fascin 1 (Homo sapiens, UniProt Q16658).
T1 construct: GST (N, cleaved yes); made in house; host or cells: Escherichia coli BL21/DE3 (pGEX4T-fascin 1 plasmid)
Briefly: Fascin inhibition (actin bundling) assay, image-based. In kind it is biochemical. The following applies: in the presence of 50 μm of the compound relative to bundle activity when the compound was not present; read-out: Inhibition (percentage reduction of bundle activity). The gist of the method: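 GST-tagged human fascin 1 from E. coli, thrombin-cleaved, was preincubated with compounds for 30 min, then polymerized actin was added; compounds were at 30 μM final. Bundles captured on poly-D-lysine plates were imaged, and background-corrected bundle length per well was computed, with DMSO-only wells as negative controls.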

Consider `O=C(Nc1nn(Cc2ccc(C(F)(F)F)cc2)c2ccccc12)c1sccc1Cl` [Compound 41, 3-chloro-N-(1-(4-(trifluoromethyl)benzyl)-1H-indazol-3-yl)thiophene-2-carboxamide], for which the inhibition at 50 µM is under 10%.

With `Cc1occc1C(=O)Nc1nn(Cc2ccc(F)cc2)c2ccccc12` [Compound 74, N-(1-(4-fluorobenzyl)-1H-indazol-3-yl)-2-methylfuran-3-carboxamide], the inhibition at 50 µM was under 10%.

`Cc1nocc1C(=O)Nc1nn(Cc2ccc(C#N)cc2)c2ccccc12` [Compound 86, N-(1-(4-cyanobenzyl)-1H-indazol-3-yl)-3-methylisoxazole-4-carboxamide]: the inhibition at 50 µM was under 10%.

As for `O=C(Nc1n[nH]c2ccccc12)c1ccoc1` [Compound 62, N-(1H-indazol-3-yl)furan-3 carboxamide], the inhibition at 50 µM was under 10%.

Turning to `O=C(Nc1nn(Cc2ccc(C(F)(F)F)cc2)c2ccccc12)c1ccc(Cl)cc1` [Compound 6, 4-chloro-N-(1-(4-(trifluoromethyl)benzyl)-1H-indazol-3-yl)benzamide], the inhibition at 50 µM is 10%.

For `O=C(Nc1nn(Cc2ccc(C(F)(F)F)cc2)c2ccccc12)c1cccc(Cl)c1` [Compound 7, 3-chloro-N-(1-(4-(trifluoromethyl)benzyl)-1H-indazol-3-yl)benzamide], the inhibition at 50 µM amounted to 10%.

In the case of `O=C(Nc1nn(Cc2ccc(C(F)(F)F)cc2)c2ccccc12)c1csc(Cl)n1` [Compound 24, 2-chloro-N-(1-(4-(trifluoromethyl)benzyl)-1H-indazol-3-yl)thiazole-4-carboxamide], the inhibition at 50 µM is under 10%.

For the compound `O=C(Nc1nn(Cc2ccccc2C(F)(F)F)c2ccccc12)c1ccoc1` [Compound 57, N-(1-(2-(trifluoromethyl)benzyl)-1H-indazol-3-yl)furan-3-carboxamide], the inhibition at 50 µM is under 10%.

In the case of `Nc1nn(Cc2ccc(C(F)(F)F)cc2)c2cncc(Cl)c12` [Compound 137, 4-chloro-1-(4-(trifluoromethyl)benzyl)-1H-pyrazolo[3,4-c]pyridin-3-amine], the inhibition at 50 µM is 100%.

As to `O=C(Nc1nn(Cc2ccc(CO)cc2)c2ccccc12)c1ccoc1` [Compound 104, N-(1-(4-(hydroxymethyl)benzyl)-1H-indazol-3-yl)furan-3-carboxamide], the inhibition at 50 µM is under 10%.

On to `Cc1ncsc1C(=O)Nc1nn(Cc2ccc(C(F)(F)F)cc2)c2cncc(Cl)c12` [Compound 138, N-(4-chloro-1-(4-(trifluoromethyl)benzyl)-1H-pyrazolo[3,4-c]pyridin-3-yl)-4-methylthiazole-5-carboxamide], for which the inhibition at 50 µM was 90%.

With `O=C(Nc1nn(Cc2ccc(C(F)(F)F)cc2)c2ccccc12)c1cscn1` [Compound 30, N-(1-(4-(trifluoromethyl)benzyl)-1H-indazol-3-yl)thiazole-4-carboxamide], the inhibition at 50 µM is under 10%.

As for `Cc1scnc1C(=O)Nc1nn(Cc2ccc(C(F)(F)F)cc2)c2ccccc12` [Compound 32, 5-methyl-N-(1-(4-(trifluoromethyl)benzyl)-1H-indazol-3-yl)thiazole-4-carboxamide], the inhibition at 50 µM was under 10%.

As to `FC(F)(F)c1ccc(Cn2nc(-c3cccc4ccccc34)c3ccccc32)cc1` [Compound 145, 3-(naphthalen-1-yl)-1-(4-(trifluoromethyl)benzyl)-1H-indazole], the inhibition at 50 µM was 10%.

Regarding `Cc1csc(C(=O)Nc2nn(Cc3ccc(C(F)(F)F)cc3)c3ccccc23)n1` [Compound 11, 4-methyl-N-(1-(4-(trifluoromethyl)benzyl)-1H-indazol-3-yl)thiazole-2-carboxamide], the inhibition at 50 µM is under 10%.

For `Cc1nocc1C(=O)Nc1nn(Cc2ccc(F)cc2)c2ccccc12` [Compound 72, N-(1-(4-fluorobenzyl)-1H-indazol-3-yl)-3-methylisoxazole-4-carboxamide], the inhibition at 50 µM is under 10%.

Take `Cc1ccc(-c2nn(Cc3ccc(C(F)(F)F)cc3)c3ccccc23)o1` [Compound 146, 3-(5-methylfuran-2-yl)-1-(4-(trifluoromethyl)benzyl)-1H-indazole]: the inhibition at 50 µM turned out to be 10%.

With `O=C(Nc1nn(Cc2ccc(Cl)cc2)c2ccccc12)c1ccoc1` [Compound 64, N-(1-(4-chlorobenzyl)-1H-indazol-3-yl)furan-3-carboxamide], the inhibition at 50 µM was 50%.

On to `O=C(Nc1nn(Cc2ccc(C(F)(F)F)cc2)c2ccccc12)c1ccccn1` [Compound 55, N-(1-(4-(trifluoromethyl)benzyl)-1H-indazol-3-yl)picolinamide], for which the inhibition at 50 µM is under 10%.

On to `FC(F)(F)c1ccc(Cn2nc(Br)c3ccccc32)cc1` [Compound 143, 3-Bromo-1-(4-(trifluoromethyl)benzyl)-1H-indazole], for which the inhibition at 50 µM was 10%.

Turning to `Nc1nn(Cc2ccc(C(F)(F)F)nc2)c2ccccc12` [Compound 91, 1-((6-(trifluoromethyl)pyridine-3-yl)methyl)-1H-indazol-3-amine], the inhibition at 50 µM is under 10%.

For the compound `O=C(Nc1nn(Cc2ccc(C(F)(F)F)cc2)c2ccccc12)c1ccc(F)c(F)c1` [Compound 19, 3,4-difluoro-N-(1-(4-(trifluoromethyl)benzyl)-1H-indazol-3-yl)benzamide], the inhibition at 50 µM is under 10%.

Take `CC(C)C(=O)Nc1nn(Cc2ccc(C(F)(F)F)cc2)c2cncc(Cl)c12` [Compound 152, N-(4-chloro-1-(4-(trifluoromethyl)benzyl)-1H-pyrazolo[3,4-c]pyridin-3-yl)isobutyramide]: the inhibition at 50 µM was determined as 100%.

For `O=C(Nc1nn(Cc2ccccc2)c2ccccc12)c1ccoc1` [Compound 58, N-(1-benzyl-1H-indazol-3-yl)furan-3-carboxamide], the inhibition at 50 µM is under 10%.

As for `Cc1ncsc1C(=O)Nc1nn(Cc2ccc(C(F)(F)F)cc2)c2cc(C(F)(F)F)ccc12` [Compound 110, 4-methyl-N-(6-(trifluoromethyl)-1-(4-(trifluoromethyl)benzyl)-1H-indazol-3-yl)thiazole-5-carboxamide], the inhibition at 50 µM was under 10%.

For the compound `O=C(Nc1cn(Cc2ccc(C(F)(F)F)cc2)c2ccccc12)c1ccoc1` [Compound 105, N-(1-(4-(trifluoromethyl)benzyl)-1H-indol-3-yl)furan-3-carboxamide], the inhibition at 50 µM was under 10%.

`Cc1ncsc1C(=O)Nc1nn(Cc2ccc(C(F)(F)F)cc2)c2ccc(C(F)(F)F)cc12` [Compound 126, 4-methyl-N-(5-(trifluoromethyl)-1-(4-(trifluoromethyl)-bemzyl)-1H-indazol-3-yl)thiazole-5-carboxamide]: the inhibition at 50 µM is under 10%.

With `CCC(=O)Nc1nn(Cc2ccc(C(F)(F)F)cc2)c2cncc(Cl)c12` [Compound 151, N-(4-chloro-1-(4-(trifluoromethyl)benzyl)-1H-pyrazolo[3,4-c]pyridin-3-yl)propionamide], the inhibition at 50 µM came to 80%.

Consider `Cc1occc1C(=O)Nc1nn(Cc2ccc(C(F)(F)F)cc2)c2cccc(Cl)c12` [Compound 119, N-(4-chloro-1-(4-(trifluoromethyl)benzyl)-1H-indazol-3-yl)-2-methylfuran-3-carboxamide], for which the inhibition at 50 µM is under 10%.

As for `Cc1ncsc1C(=O)Nc1nn(Cc2ccc(C(F)(F)F)nc2)c2ccccc12` [Compound 95, 4-methyl-N-(1-((6-(trifluoromethyl)pyridin-3-yl)methyl)-1H-indazol-3-yl)thiazole-5-carboxamide], the inhibition at 50 µM was under 10%.

Take `Cc1ncsc1C(=O)Nc1nn(Cc2ccc(Cl)cc2)c2ccccc12` [Compound 68, N-(1-(4-chlorobenzyl)-1H-indazol-3-yl)-4-methylthiazole-5-carboxamide]: the inhibition at 50 µM was 50%.

With `Cc1ccsc1C(=O)Nc1nn(Cc2ccc(C(F)(F)F)cc2)c2ccccc12` [Compound 23, 3-methyl-N-(1-(4-(trifluoromethyl)benzyl)-1H-indazol-3-yl)thiophene-2-carboxamide], the inhibition at 50 µM is under 10%.

In the case of `O=C(Nc1nn(Cc2ccc(C(F)(F)F)cc2)c2ccccc12)c1ccc(F)cc1` [Compound 13], the inhibition at 50 µM was under 10%.

Turning to `Cc1occc1C(=O)Nc1nn(Cc2ccc(C(F)(F)F)nc2)c2ccccc12` [Compound 94, 2-methyl-N-(1-((6-(trifluoromethyl)pyridin-3-yl)methyl)-1H-indazol-3-yl)furan-3-carboxamide], the inhibition at 50 µM was under 10%.

For the compound `FC(F)(F)c1ccc(Cn2nc(-c3ccoc3)c3ccccc32)cc1` [Compound 147, 3-(furan-3-yl)-1-(4-(trifluoromethyl)benzyl)-1H-indazole], the inhibition at 50 µM came to 10%.

Regarding `O=C(Nc1nn(Cc2ccc(C(F)(F)F)cc2)c2ccccc12)c1cc2ccccc2o1` [Compound 2, N-(1-(4-(trifluoromethyl)benzyl)-1H-indazol-3-yl)benzofuran-2-carboxamide], the inhibition at 50 µM is under 10%.

`O=C(Nc1nn(Cc2ccc(C(F)(F)F)cc2)c2ccccc12)c1cscc1Br` [Compound 42, 4-bromo-N-(1-(4-(trifluoromethyl)benzyl)-1H-indazol-3-yl)thiophene-3-carboxamide]: the inhibition at 50 µM was under 10%.

As to `N#Cc1ccc2c(c1)c(N)nn2Cc1ccc(C(F)(F)F)nc1` [Compound 97, 3-amino-1-((6-(trifluoromethyl)pyridin-3-yl)methyl)-1H-indazole-5-carbonitrile], the inhibition at 50 µM is under 10%.

For `O=C(Nc1nn(Cc2ccc(C(F)(F)F)cc2)c2ccccc12)c1cc(Cl)ccn1` [Compound 18], the inhibition at 50 µM was under 10%.

In the case of `COc1cscc1C(=O)Nc1nn(Cc2ccc(C(F)(F)F)cc2)c2ccccc12` [Compound 51, 4-methoxy-N-(1-(4-(trifluoromethyl)benzyl)-1H-indazol-3-yl)thiophene-3-carboxamide], the inhibition at 50 µM was under 10%.

Take `FC(F)(F)c1ccc(CNc2nn(Cc3ccc(C(F)(F)F)cc3)c3ccccc23)cc1` [Compound 22, N,1-bis(4-(trifluoromethyl)benzyl)-1H-indazol-3-amine]: the inhibition at 50 µM is under 10%.

As a reminder, the inhibition is the percentage by which the read-out fell short of the control.
